Experimental data as given in patent US9539298B2, “Lissencephaly therapeutic agent” (OSAKA CITY UNIVERSITY, priority 2010, dated 2017).

Columns and labels:
[1] = target: T1, μ-calpain (derived from human red blood cells) (Homo sapiens, UniProt P07384); assay: Measurement of inhibitory activity against μ-calpain; format: biochemical; settings: casein substrate, 30° C., 60 minutes; read-out: enzyme inhibitory activities (μM) μ-calpain
T1 construct: derived from human red blood cells; purchased Cosmo Bio Co., Ltd; host or cells: human red blood cells (tissue-purified)
T1 sequence (P07384 1-714): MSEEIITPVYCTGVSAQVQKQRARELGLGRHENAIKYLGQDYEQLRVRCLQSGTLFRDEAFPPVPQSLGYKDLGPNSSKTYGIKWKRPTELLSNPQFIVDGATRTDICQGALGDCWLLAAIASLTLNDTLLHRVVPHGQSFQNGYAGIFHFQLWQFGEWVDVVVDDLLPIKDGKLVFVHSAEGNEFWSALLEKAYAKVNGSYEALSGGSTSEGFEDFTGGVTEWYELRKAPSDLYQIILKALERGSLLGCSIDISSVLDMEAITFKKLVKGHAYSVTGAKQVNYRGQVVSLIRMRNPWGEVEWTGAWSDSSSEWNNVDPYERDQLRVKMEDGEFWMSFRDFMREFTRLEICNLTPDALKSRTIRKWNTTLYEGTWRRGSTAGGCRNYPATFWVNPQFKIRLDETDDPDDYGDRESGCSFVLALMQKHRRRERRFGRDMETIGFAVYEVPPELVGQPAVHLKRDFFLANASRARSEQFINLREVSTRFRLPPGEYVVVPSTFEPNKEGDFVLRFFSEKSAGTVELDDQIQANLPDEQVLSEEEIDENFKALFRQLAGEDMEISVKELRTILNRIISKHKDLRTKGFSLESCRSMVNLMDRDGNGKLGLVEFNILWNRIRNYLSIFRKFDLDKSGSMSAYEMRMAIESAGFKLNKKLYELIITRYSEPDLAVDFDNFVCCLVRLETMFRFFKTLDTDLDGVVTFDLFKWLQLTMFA
T1 sequence (P04632 1-268 partner): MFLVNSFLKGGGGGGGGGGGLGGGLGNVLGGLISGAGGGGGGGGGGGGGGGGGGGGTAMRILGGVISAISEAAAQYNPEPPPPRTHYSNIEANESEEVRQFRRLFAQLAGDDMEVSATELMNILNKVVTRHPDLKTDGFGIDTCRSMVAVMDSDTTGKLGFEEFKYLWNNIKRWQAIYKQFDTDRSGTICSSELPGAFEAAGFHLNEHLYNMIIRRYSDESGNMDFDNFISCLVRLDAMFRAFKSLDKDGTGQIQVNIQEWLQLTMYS
Description: The inhibitory activity against μ-calpain and m-calpain was assayed according to a published method (Anal. Biochem. 1993, vol. 208, p. 387-392). More specifically, 200 μL of a reaction solution containing 0.5 mg/mL casein, 50 mM Tris-HCl buffer (pH 7.4), 20 mM dithiothreitol and 1.0 nmol μ-calpain (derived from human red blood cells, Cosmo Bio Co., Ltd.) or m-calpain (derived from porcine kidney, Cosmo Bio Co., Ltd.) was added to individual 2.5 μL portions of DMSO solution containing a varying concentration of a test sample in a 96-well plate. Then, 50 μL of 20 mM aqueous calcium chloride was added thereto, and reaction was performed at 30° C. for 60 minutes. 100 μL of the reaction solution was transferred to another 96-well plate, and purified water (50 μL) and 50% aqueous solution (100 μL) of Protein Assay Dye Reagent (available from Bio-Rad Laboratories, Inc.; catalogue No. 500-600) were added thereto. The reaction mixture was allowed to stand at room temperature for 15 minutes, and its absorbance was measured at 595 nm. The absorbance of a reaction mixture prepared in the same manner as mentioned above, except that a DMSO solution containing no sample was used as a control value; and the absorbance of a reaction mixture prepared in the same manner as mentioned above, except that a 1 mM aqueous EDTA solution (50 μL) was used in place of 20 mM aqueous calcium chloride, was used as a blank value. […] Inhibition rate (%){1−(measured value−blank test value)/(control value−blank test value)}×100
The concentrations (IC50) are shown in Table 1 as enzyme (calpain) inhibitory activities (μM).

[2] = test system: Lis1+/− cerebellar granule nerve cells; assay: Migration capability of cerebellar granule nerve cells; format: cell-based, mouse; settings: 200 μM, 18-24 hours, FIG. 5
Description: Cerebellum tissue fragments of LIS1 gene hetero-deficient and wild-type mice (3-7 days after birth) (10 mice for each group) were crushed by gentle pipetting, and treated with 0.025% trypsin (Gibco, 25200)/0.0013% DNaseI (Sigma, DN-25) at 37° C. for 20 minutes. After centrifugation, a BME culture solution (Gibco, 21010) containing 10% equine blood serum was added for washing, and the reaction was stopped. Thereafter, the reaction liquid was subjected to pipetting by adding a BME culture solution containing 0.0052% DNaseI/10% equine blood serum, and filtered with a cell mesh-strainer (diameter=70 μm; Becton Dickinson). […]
After the incubation, the aggregates were washed with a phosphate buffer (PBS), and immobilized by 4% paraformaldehyde (Wako, 162-16065) (at room temperature, for 15 minutes). […] Thereafter, the aggregates were repeatedly washed well with PBS, and carefully embedded using glycerol (Merck) for fluorescence microscope observation so as to avoid damage.
After careful observation using a confocal laser microscope (TCS-SP5, Leica), the migratory distance (μm) of the nerve cells from the marginal zone of the cerebellum granule cell aggregates was measured for each cell group. […] Further, an average migratory distance (μm) was calculated and expressed as average migratory distance (μm)±standard deviation. […]

COCCOCCOC(=O)N[C@@H](CC(C)C)C(=O)N[C@@H](Cc1ccccc1)C(=O)C(=O)NC1CC1 [compound 17, ((1S)-1-((((1S)-1-Benzyl-2,3-dioxo-3-(cyclopropylamino)propyl)amino)carbonyl)-3-methylbutyl)carbamic acid 5-methoxy-3-oxapentyl ester]
IC50 [1]: 0.17 µM
migration capability of nerve cells [2]: the recovery of migration capability was observed
